What was measured:
Phytophthora infestans = type: in vivo; details: tomato young plants, protective spray, rate of application 100 g/ha, evaluated 3 days after inoculation; 0% = as control, 100% = no disease

Structure (SMILES) | melting point | Efficacy in % (Phytophthora infestans)
Cc1noc(C)c1S(=O)(=O)n1c(=O)sc2c([N+](=O)[O-])cc(C(F)(F)F)cc21 [Example 5] | 129 to 133 °C | 100%
Cc1noc(C)c1S(=O)(=O)n1c(=O)oc2c(Cl)cc(Cl)cc21 [Example 3] | 164 to 166 °C | 93%
Cc1noc(C)c1S(=O)(=O)n1c(=O)sc2c(C(F)(F)F)cc([N+](=O)[O-])cc21 [Example 6] | 210 to 213 °C | 93%
Cc1noc(C)c1S(=O)(=O)n1c(=O)sc2c(C(F)(F)F)cc(C(F)(F)F)cc21 [Example 7] | 152 to 156 °C | 93%
Cc1noc(C)c1S(=O)(=O)n1c(=O)oc2ccc(Cl)cc21 [Example 4] | 183 to 187 °C | 86%

Reference: patent publication US6465499B1 (priority 1996, dated 2002)
